Holding throughout (details): Compound concentration 10 µM
Assay [1] addresses Translocator protein (Homo sapiens) (UniProt P30536).
Assay [2] deals with D(3) dopamine receptor (Homo sapiens) (UniProt P35462).
The target of assay [3] is Sigma intracellular receptor 2 (Homo sapiens) (UniProt Q5BJF2).
Assay [4] deals with 5-hydroxytryptamine receptor 5A (Homo sapiens) (UniProt P47898).
In assay [5] the target is T1, 5-hydroxytryptamine receptor 3A (Homo sapiens) (UniProt P46098).
T1 sequence (whole entry): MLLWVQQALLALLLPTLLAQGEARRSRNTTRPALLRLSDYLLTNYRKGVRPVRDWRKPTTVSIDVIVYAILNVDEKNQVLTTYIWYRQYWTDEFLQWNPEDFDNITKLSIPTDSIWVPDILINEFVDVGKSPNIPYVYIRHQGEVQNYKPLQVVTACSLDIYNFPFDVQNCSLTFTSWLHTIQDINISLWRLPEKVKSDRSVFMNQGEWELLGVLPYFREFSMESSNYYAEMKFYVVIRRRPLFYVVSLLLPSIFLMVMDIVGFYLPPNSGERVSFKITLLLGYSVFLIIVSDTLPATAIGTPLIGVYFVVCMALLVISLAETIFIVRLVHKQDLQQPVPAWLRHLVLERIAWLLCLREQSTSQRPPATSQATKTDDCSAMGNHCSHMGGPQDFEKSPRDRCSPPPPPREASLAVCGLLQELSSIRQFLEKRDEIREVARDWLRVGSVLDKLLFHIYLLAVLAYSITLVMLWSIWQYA

The target in assay [6] is T2, 5-hydroxytryptamine receptor 1A (Homo sapiens) (UniProt P08908).
T2 sequence (whole entry): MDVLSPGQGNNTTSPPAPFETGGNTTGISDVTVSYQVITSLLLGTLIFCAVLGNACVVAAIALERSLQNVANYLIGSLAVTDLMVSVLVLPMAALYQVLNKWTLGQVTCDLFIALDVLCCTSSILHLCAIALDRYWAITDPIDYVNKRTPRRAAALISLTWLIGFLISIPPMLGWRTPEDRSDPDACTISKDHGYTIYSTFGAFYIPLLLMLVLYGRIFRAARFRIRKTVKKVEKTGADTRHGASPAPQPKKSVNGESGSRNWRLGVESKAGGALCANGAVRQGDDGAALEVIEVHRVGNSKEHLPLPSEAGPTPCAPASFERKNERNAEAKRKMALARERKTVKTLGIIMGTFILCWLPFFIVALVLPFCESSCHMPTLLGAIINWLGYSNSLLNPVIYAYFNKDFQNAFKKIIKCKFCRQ

Assay [7] addresses 5-hydroxytryptamine receptor 2B (Homo sapiens) (UniProt P41595).
Assay [8] has as its target T3, Alpha-2C adrenergic receptor (Homo sapiens) (UniProt P18825).
T3 sequence (whole entry): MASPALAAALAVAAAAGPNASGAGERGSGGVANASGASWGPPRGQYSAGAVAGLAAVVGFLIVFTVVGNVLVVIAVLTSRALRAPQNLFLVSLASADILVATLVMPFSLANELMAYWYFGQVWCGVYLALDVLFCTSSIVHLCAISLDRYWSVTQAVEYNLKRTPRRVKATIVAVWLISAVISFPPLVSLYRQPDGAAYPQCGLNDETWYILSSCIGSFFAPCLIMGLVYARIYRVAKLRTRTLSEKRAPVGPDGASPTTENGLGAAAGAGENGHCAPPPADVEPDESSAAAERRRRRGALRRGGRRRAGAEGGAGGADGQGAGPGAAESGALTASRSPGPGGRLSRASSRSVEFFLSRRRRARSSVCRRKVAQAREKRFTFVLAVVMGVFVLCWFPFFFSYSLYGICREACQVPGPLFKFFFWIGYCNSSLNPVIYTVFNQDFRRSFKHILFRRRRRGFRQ

The target of assay [9] is Histamine H1 receptor (Homo sapiens) (UniProt P35367).
Histamine H1 receptor (Homo sapiens), sequence (P35367 whole entry): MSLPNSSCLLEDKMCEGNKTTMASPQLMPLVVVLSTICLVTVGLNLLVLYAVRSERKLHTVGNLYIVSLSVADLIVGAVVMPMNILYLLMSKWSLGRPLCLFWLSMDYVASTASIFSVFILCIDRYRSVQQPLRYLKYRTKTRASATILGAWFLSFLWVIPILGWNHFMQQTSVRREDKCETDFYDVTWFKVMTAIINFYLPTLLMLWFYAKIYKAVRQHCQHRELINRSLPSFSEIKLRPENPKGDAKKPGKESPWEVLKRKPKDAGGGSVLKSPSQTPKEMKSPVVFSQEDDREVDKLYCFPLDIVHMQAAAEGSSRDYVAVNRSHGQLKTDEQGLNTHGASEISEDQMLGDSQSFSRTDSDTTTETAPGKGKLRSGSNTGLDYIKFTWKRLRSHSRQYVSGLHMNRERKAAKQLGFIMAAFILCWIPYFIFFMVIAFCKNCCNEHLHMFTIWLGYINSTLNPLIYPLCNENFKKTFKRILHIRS
Assay [10] concerns the target 5-hydroxytryptamine receptor 2A (Homo sapiens) (UniProt P28223).
The target in assay [11] is Histamine H4 receptor (Homo sapiens) (UniProt Q9H3N8).
Histamine H4 receptor (Homo sapiens), sequence (Q9H3N8 whole entry): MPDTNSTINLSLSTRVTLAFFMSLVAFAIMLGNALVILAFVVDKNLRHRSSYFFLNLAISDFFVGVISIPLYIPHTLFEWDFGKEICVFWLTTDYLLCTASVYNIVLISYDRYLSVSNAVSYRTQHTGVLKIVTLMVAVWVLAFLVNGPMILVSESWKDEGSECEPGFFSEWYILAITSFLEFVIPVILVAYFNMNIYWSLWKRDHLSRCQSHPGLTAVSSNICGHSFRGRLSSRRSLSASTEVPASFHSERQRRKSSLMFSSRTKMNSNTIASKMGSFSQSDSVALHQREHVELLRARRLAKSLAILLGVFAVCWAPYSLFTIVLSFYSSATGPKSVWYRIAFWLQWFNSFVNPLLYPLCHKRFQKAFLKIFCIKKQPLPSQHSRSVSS
For assay [12], the target named is 5-hydroxytryptamine receptor 1E (Homo sapiens) (UniProt P28566).
5-hydroxytryptamine receptor 1E (Homo sapiens), sequence (P28566 whole entry): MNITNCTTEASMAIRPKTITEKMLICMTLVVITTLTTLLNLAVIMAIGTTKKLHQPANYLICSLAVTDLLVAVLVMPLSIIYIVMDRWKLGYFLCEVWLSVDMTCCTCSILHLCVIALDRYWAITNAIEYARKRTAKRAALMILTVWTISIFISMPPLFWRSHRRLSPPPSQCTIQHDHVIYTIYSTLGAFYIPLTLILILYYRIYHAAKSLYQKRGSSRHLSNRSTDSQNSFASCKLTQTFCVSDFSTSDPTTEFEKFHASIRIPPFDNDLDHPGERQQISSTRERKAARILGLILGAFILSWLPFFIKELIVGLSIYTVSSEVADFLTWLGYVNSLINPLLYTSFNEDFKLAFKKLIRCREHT
Assay [13] has as its target Beta-2 adrenergic receptor (Homo sapiens) (UniProt P07550).
Assay [14] has as its target T4, 5-hydroxytryptamine receptor 2C (Homo sapiens) (UniProt P28335).
T4 sequence (whole entry): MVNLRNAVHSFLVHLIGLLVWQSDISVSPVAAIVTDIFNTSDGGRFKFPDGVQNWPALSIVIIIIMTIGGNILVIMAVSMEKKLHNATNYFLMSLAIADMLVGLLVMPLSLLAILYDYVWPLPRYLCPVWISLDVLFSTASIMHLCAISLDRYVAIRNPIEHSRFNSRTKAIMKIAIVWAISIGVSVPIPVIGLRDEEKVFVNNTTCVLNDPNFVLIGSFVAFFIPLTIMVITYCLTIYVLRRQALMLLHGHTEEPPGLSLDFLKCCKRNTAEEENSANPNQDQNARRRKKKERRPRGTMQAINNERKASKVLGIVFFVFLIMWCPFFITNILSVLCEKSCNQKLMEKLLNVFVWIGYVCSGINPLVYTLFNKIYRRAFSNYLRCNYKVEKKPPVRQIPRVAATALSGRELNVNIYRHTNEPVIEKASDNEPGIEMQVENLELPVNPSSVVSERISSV

The target of assay [15] is T5, D(4) dopamine receptor (Homo sapiens) (UniProt P21917).
T5 sequence (whole entry): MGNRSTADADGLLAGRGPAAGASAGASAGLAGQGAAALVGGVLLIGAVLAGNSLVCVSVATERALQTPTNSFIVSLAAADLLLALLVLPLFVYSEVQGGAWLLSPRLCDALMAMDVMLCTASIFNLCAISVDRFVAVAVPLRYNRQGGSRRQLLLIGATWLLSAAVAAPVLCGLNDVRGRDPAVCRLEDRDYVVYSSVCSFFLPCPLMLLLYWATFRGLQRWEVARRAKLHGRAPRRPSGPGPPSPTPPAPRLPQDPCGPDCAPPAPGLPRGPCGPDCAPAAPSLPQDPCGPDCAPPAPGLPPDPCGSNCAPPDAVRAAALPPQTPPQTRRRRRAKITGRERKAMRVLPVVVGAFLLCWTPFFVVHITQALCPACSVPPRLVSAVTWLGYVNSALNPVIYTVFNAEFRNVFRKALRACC

Assay [16] has as its target Kappa-type opioid receptor (Homo sapiens) (UniProt P41145).

5-hydroxytryptamine receptor 5A (Homo sapiens), sequence (P47898 whole entry): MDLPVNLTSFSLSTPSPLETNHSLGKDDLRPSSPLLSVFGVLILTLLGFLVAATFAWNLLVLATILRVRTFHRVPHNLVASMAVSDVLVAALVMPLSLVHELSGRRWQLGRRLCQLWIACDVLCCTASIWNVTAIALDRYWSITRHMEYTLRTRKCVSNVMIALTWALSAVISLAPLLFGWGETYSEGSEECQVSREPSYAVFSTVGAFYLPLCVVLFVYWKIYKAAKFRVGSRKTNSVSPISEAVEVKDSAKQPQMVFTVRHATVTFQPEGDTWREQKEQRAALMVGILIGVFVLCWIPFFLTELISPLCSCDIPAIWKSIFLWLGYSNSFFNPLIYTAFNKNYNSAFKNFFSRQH
5-hydroxytryptamine receptor 2A (Homo sapiens), sequence (P28223 whole entry): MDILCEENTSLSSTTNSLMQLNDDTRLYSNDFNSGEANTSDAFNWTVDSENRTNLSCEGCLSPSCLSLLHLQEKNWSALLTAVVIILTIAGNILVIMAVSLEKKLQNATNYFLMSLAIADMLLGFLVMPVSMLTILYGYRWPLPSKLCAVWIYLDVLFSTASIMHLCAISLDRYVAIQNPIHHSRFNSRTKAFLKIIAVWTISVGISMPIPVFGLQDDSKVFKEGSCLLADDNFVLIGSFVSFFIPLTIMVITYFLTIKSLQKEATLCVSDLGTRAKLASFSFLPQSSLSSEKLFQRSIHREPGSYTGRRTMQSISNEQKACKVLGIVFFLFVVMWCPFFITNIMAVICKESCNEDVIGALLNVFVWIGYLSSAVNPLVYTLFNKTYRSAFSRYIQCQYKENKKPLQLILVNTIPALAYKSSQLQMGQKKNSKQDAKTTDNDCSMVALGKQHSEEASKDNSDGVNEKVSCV
Kappa-type opioid receptor (Homo sapiens), sequence (P41145 whole entry): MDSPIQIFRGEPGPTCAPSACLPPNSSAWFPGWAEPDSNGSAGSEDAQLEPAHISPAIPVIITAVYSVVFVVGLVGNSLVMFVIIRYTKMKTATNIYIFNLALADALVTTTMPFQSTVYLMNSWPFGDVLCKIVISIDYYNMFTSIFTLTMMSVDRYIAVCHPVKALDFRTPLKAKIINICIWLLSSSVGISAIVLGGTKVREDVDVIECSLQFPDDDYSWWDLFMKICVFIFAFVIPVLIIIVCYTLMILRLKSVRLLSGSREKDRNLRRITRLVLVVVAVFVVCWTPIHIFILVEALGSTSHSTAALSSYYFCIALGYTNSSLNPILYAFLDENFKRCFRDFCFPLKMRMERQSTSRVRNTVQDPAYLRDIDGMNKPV
Beta-2 adrenergic receptor (Homo sapiens), sequence (P07550 whole entry, looked up): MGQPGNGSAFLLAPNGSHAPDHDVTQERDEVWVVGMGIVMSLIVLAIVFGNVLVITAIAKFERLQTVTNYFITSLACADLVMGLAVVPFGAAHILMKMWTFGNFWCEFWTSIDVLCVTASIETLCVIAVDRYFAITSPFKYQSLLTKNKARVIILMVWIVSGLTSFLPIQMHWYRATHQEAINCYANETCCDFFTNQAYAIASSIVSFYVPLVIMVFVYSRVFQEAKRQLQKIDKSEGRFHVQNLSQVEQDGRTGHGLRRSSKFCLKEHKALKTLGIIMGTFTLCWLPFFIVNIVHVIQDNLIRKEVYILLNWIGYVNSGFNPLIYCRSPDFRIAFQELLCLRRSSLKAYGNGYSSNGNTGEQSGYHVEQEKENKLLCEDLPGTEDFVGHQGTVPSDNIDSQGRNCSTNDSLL
Sigma intracellular receptor 2 (Homo sapiens), sequence (Q5BJF2 whole entry): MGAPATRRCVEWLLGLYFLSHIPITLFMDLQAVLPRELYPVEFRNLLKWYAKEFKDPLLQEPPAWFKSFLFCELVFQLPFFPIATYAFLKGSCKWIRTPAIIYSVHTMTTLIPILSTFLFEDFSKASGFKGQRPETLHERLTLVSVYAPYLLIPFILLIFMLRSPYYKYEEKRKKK
5-hydroxytryptamine receptor 2B (Homo sapiens), sequence (P41595 whole entry): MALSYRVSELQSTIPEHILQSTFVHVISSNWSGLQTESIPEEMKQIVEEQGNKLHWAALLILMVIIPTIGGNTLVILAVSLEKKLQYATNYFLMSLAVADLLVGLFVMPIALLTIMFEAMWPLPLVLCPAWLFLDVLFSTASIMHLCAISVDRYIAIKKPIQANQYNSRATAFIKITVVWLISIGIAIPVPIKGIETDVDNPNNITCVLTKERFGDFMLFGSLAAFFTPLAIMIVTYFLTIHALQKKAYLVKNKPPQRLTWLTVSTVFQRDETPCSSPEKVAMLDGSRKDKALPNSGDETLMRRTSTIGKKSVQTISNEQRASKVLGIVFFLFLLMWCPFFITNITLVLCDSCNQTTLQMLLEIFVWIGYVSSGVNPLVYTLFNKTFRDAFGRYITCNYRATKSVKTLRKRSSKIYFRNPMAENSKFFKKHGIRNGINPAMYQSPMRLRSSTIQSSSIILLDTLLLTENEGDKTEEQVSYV
Translocator protein (Homo sapiens), sequence (P30536 whole entry): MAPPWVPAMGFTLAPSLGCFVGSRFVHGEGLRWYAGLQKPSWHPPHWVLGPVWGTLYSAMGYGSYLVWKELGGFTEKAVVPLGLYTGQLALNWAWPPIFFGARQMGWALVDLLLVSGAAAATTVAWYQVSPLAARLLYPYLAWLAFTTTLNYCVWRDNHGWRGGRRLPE
D(3) dopamine receptor (Homo sapiens), sequence (P35462 whole entry): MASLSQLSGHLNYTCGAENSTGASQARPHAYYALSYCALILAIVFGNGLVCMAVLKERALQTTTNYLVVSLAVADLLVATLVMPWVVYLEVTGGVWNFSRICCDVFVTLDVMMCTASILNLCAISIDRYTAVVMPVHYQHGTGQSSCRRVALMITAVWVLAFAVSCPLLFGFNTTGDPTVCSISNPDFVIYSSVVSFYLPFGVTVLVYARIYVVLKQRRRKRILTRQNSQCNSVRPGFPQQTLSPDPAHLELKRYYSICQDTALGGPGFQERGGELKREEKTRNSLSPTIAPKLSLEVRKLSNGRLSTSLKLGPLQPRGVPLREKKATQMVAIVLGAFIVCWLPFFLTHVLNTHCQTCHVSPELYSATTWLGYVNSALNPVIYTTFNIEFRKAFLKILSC

Take `Clc1ccc(CCCOCCCN2CCCCC2)cc1`: the inhibition in [1] is -6.49%; in assay [2], 47.4%; in assay [3], 98.7%; in [4] it was -0.39%; in assay [5], 28.6%; in assay [6], 16.8%. The inhibition was 37% in assay [7]; 49.4% in assay [8]; 68.7% in assay [9]; 28.5% in [10]; -7.57% in assay [11]; 17.3% in assay [12]. In addition, the inhibition was -7.56% in assay [13], 57% in assay [14], 21.5% in assay [15] and 40.4% in assay [16].
For `Cc1cc(NC(=O)NCCN2CCC(O)(Cc3ccccc3)CC2)c2ccccc2n1`, the inhibition in assay [1] was 44.3%; in assay [2], 27.4%; in [3] it was 86%; in assay [4], 5.79%; in [5] it was 4.17%; in assay [6], -6.82%. The inhibition in assay [7] was 62.2%; in assay [8], 37.3%; in [9], 5.97%; in assay [10] it was 52.7%; in assay [11] it was 3.45%; in assay [12], 5.03%. The inhibition is 28.1% in assay [13], 92.3% in assay [14], 21.1% in [15] and 31.9% in [16].
As for `Cc1cc(C)c(N)c(C#Cc2cccc(F)c2)n1`, the inhibition is 39.6% in assay [1]; 9.35% in assay [2]; 15.9% in [3]; -5.73% in assay [4]; -2.76% in [5]; -6.48% in assay [6]. Further, the inhibition was 29.9% in assay [7]; 13.5% in assay [8]; 9.77% in [9]; 5.87% in [10]; 8.38% in [11]; 20.1% in assay [12]. Moreover, the inhibition in assay [13] was 19.8%; in assay [14], 2.41%; in assay [15] it was -9.97%; in assay [16], 18.4%.
With `Cc1c(P(=S)(c2ccccc2)c2ccccc2)n2ccccc2[n+]1C/C=C/c1ccccc1`, the inhibition in [1] was 6.66%; in assay [2] it was 48.5%; in assay [3], 88%; in assay [4], 42.1%; in assay [5] it was 20.9%; in [6] it was 54.3%. Moreover, the inhibition in assay [7] is 8.18%; in assay [8] it was 101%; in assay [9], 67.1%; in assay [10], 55.7%; in assay [11], 31%; in assay [12], 1.99%. For the same compound, the inhibition is 65.4% in assay [13], 25.7% in assay [14], 25.8% in assay [15] and 101% in [16].
With `CN1CCN(c2ccc(Nc3c4ccccc4nc4ccccc34)cc2)CC1`, the inhibition in [1] was 6%; in [2], -2.42%; in [3], 70.8%; in assay [4] it was 20.3%; in assay [5], 32%; in assay [6], 8.52%. Besides, the inhibition in [7] was 36.1%; in assay [8] it was 105%; in assay [9], 54.4%; in assay [10] it was 5.02%; in [11], 15.5%; in [12], 46.2%. Also, the inhibition in assay [13] was 81.7%; in [14] it was 16.7%; in assay [15], 13.3%; in [16], 38.7%.
Regarding `N#Cc1c(N)nc(SCc2csc(-c3ccc(Cl)cc3)n2)c(C#N)c1-c1ccc(OCCO)cc1`, the inhibition was 57.6% in assay [1]; 12.5% in assay [2]; 36.6% in assay [3]; -4.31% in assay [4]; 1.79% in [5]; -0.89% in [6]. Besides, the inhibition is 62.1% in assay [7]; 3.52% in [8]; 14.2% in [9]; 18.4% in assay [10]; -8.37% in [11]; -9.34% in assay [12]. Further, the inhibition in assay [13] was 17%; in assay [14], 39.9%; in assay [15] it was 38.4%; in assay [16] it was -8.5%.
Consider `CS(=O)(=O)NC[C@H]1CC[C@H](Nc2nc3c(s2)CCSc2ccccc2-3)CC1`, for which the inhibition in assay [1] is 35.9%; in assay [2] it was 67.2%; in assay [3], 81.4%; in assay [4], 64.7%; in [5], 0.88%; in assay [6], 35.6%. Moreover, the inhibition in [7] is 83%; in assay [8], 37.1%; in assay [9], 18.7%; in assay [10], 23.7%; in [11], -4.86%; in [12], 6.22%. Also, the inhibition in assay [13] is 94.4%; in assay [14], 0.89%; in [15], 44%; in [16] it was -0.03%.

In general, inhibition refers to the relative decrease from the control value, in per cent.
